Test results reported in ChEMBL document CHEMBL4813920, “Metronidazole-conjugates: A comprehensive review of recent developments towards synthesis and medicinal perspective” (Eur J Med Chem, 2021).
In brackets after ≈: the same amount, converted by molar mass.

Tests used:
[1] = test system: Giardia intestinalis; assay: Antigiardial activity against Giardia intestinalis WB incubated for 2 days under anaerobic condition; assay type: functional, organism-based; conditions: Giardia duodenalis, 48 h
[2] = test system: Entamoeba histolytica; assay: Antiamoebic activity against Entamoeba histolytica HM-1:IMSS trophozoites incubated for 2 days under anaerobic condition; assay type: functional, organism-based; conditions: 48 h
[3] = test system: A549; assay: Anticancer activity against human A549 cells assessed as inhibition of cell proliferation at 0.5 uM measured after 48 hrs by CCK8 assay relative to control; assay type: functional
[4] = test system: NCI-H446; assay: Anticancer activity against human NCI-H446 cells assessed as inhibition of cell proliferation at 0.5 uM measured after 48 hrs by CCK8 assay relative to control; assay type: functional
[5] = test system: Trichomonas vaginalis; assay: Anti-trichomonas activity against Trichomonas vaginalis JT assessed as release of H2O2 at 0.229 uM preincubated for 3 hrs followed by DCFH-DA probe addition and measured after 30 mins by confocal microscopy; assay type: functional; conditions: time 3.5 hrs
[6] = test system: Clostridium sporogenes; assay: Antimicrobial activity against Clostridium sporogenes ATCC 19404 incubated for 24 hrs by broth microdilution method; assay type: functional
[7] = test system: Trichomonas vaginalis; assay: Anti-trichomonas activity against Trichomonas vaginalis GT3 incubated for 48 hrs; assay type: functional, organism-based; conditions: GT3, 48 h
[8] = test system: Trichomonas vaginalis; assay: Anti-trichomonas activity against Trichomonas vaginalis JT assessed as release of superoxide radical at 0.229 uM preincubated for 3 hrs followed by Dihydroethidium probe addition and measured after 30 mins by confocal microscopy; assay type: functional; conditions: time 3.5 hrs
[9] = test system: Trichomonas vaginalis; assay: Anti-trichomonas activity against Trichomonas vaginalis JT incubated for 48 hrs by hemocytometer based eosin exclusion assay; assay type: functional, organism-based
[10] = test system: Trichomonas vaginalis; assay: Anti-trichomonas activity against Trichomonas vaginalis CDC 085 incubated for 48 hrs by hemocytometer based eosin exclusion assay; assay type: functional, organism-based; conditions: CDC 085, 48 h
[11] = test system: Leishmania mexicana; assay: Antileishmanial activity against promastigote form of Leishmania mexicana MHOM/BZ/82/Bel21 measured for 7 days by cell counting method; assay type: functional; conditions: MHOM/BZ/82/Bel21, 168 h, time 7 day
[12] = test system: Escherichia coli; assay: Antibacterial activity against Escherichia coli ATCC 8739 incubated for 24 hrs by broth microdilution method; assay type: functional
[13] = test system: Clostridium perfringens; assay: Antibacterial activity against Clostridium perfringens ATCC 13124 incubated for 48 hrs under anaerobic condition by MTT assay; assay type: functional
[14] = Selectivity index, ratio of CC50 for African green monkey Vero cells to IC50 for antigiardial activity against Trichomonas vaginalis GT3; assay type: toxicity; conditions: read-out: Ratio CC50/IC50
[15] = test system: Leishmania braziliensis; assay: Antileishmanial activity against promastigote form of Leishmania braziliensis MHOM/BR/75/M2903 measured for 7 days by cell counting method; assay type: functional; conditions: MHOM/BR/75/M2903, 168 h, time 7 day
[16] = test system: Entamoeba histolytica; assay: Antiamoebic activity against Entamoeba histolytica HK9 ATCC 30015 incubated for 72 hrs by trypan blue staining based assay; assay type: functional, organism-based; conditions: ATCC 30015, 72 h
[17] = test system: Staphylococcus aureus; assay: Antibacterial activity against Staphylococcus aureus ATCC 6538P incubated for 24 hrs by broth microdilution method; assay type: functional
[18] = test system: Giardia intestinalis; assay: Antigiardial activity against Giardia intestinalis WB ATCC 30957 incubated for 72 hrs by trypan blue staining based assay; assay type: functional, organism-based; conditions: Giardia duodenalis, WB ATCC 30957, 72 h
[19] = Selectivity index, ratio of CC50 for African green monkey Vero cells to IC50 for antigiardial activity against Giardia intestinalis MSS:0696:1; assay type: toxicity; conditions: read-out: Ratio CC50/IC50
[20] = test system: Helicobacter pylori; assay: Antimicrobial activity against Helicobacter pylori clinical isolate8 for 3 days by agar dilution method; assay type: functional; conditions: clinical isolate8, 72 h, time 3 day
[21] = test system: Helicobacter pylori; assay: Antimicrobial activity against Helicobacter pylori ATCC 43504 incubated for 3 days by agar dilution method; assay type: functional; conditions: NCTC 11637 = CCUG 17874 = ATCC 43504, 72 h, time 3 day
[22] = test system: Helicobacter pylori; assay: Antimicrobial activity against Helicobacter pylori SS1 clinical isolate2 for 3 days by agar dilution method; assay type: functional; conditions: SS1 clinical isolate2, 72 h, time 3 day
[23] = test system: Helicobacter pylori; assay: Antimicrobial activity against Helicobacter pylori clinical isolate3 for 3 days by agar dilution method; assay type: functional; conditions: clinical isolate3, 72 h, time 3 day
[24] = test system: Helicobacter pylori; assay: Potency index, ratio of MIC for metronidazole to test compound for Helicobacter pylori clinical isolate8 for 3 days by agar dilution method; assay type: functional; conditions: time 3 day
[25] = test system: Helicobacter pylori; assay: Potency index, ratio of MIC for metronidazole to test compound for Helicobacter pylori clinical isolate2 for 3 days by agar dilution method; assay type: functional; conditions: time 3 day
[26] = test system: Helicobacter pylori; assay: Antimicrobial activity against Helicobacter pylori SS1 incubated for 3 days by agar dilution method; assay type: functional; conditions: SS1, 72 h, time 3 day
[27] = test system: Helicobacter pylori; assay: Potency index, ratio of MIC for metronidazole to test compound for Helicobacter pylori SS1 incubated for 3 days by agar dilution method; assay type: functional; conditions: time 3 day
[28] = test system: Helicobacter pylori; assay: Potency index, ratio of MIC for metronidazole to test compound for Helicobacter pylori clinical isolate3 for 3 days by agar dilution method; assay type: functional; conditions: time 3 day
[29] = test system: Helicobacter pylori; assay: Potency index, ratio of MIC for metronidazole to test compound for Helicobacter pylori ATCC 43504 incubated for 3 days by agar dilution method; assay type: functional, NCTC 11637 = CCUG 17874 = ATCC 43504; conditions: time 3 day
[30] = Cytotoxicity against human MT4 cells assessed as reduction in cell viability after 5 days by MTT assay; assay type: cell-based; conditions: time 5 day
[31] = test system: Human immunodeficiency virus 1; assay: Antiviral activity against HIV1 3B infected in human MT4 cells assessed as reduction in virus-induced cell death incubated for 5 days by MTT assay; assay type: functional, organism-based; conditions: Human immunodeficiency virus 1, 3B, MT4, 120 h
[32] = Selectivity index, ratio of CC50 for cytotoxicity against human MT4 cells to EC50 for antiviral activity against HIV1 3B infected in human MT4 cells; assay type: toxicity, cell-based; conditions: read-out: Ratio CC50/EC50
[33] = test system: Proteus vulgaris; assay: Potency index, ratio of Chloromycin MIC to test compound MIC for antibacterial activity against Proteus vulgaris by two-fold serial dilution technique; assay type: functional
[34] = test system: Staphylococcus aureus; assay: Antibacterial activity against Methicillin-resistant Staphylococcus aureus N315 by two-fold serial dilution technique; assay type: functional
[35] = test system: Saccharomyces cerevisiae; assay: Antifungal activity against Beer yeast by two-fold serial dilution technique; assay type: functional
[36] = test system: Shigella dysenteriae; assay: Antibacterial activity against Shigella dysenteriae by two-fold serial dilution technique; assay type: functional
[37] = test system: Proteus vulgaris; assay: Antibacterial activity against Proteus vulgaris by two-fold serial dilution technique; assay type: functional
[38] = test system: Proteus vulgaris; assay: Potency index, ratio of Norfloxacin MIC to test compound MIC for antibacterial activity against Proteus vulgaris by two-fold serial dilution technique; assay type: functional
[39] = test system: Cyberlindnera jadinii; assay: Antifungal activity against Candida utilis by two-fold serial dilution technique; assay type: functional; conditions: Williopsis jadinii
[40] = test system: Proteus vulgaris; assay: Potency index, ratio of Metronidazole MIC to test compound MIC for antibacterial activity against Proteus vulgaris by two-fold serial dilution technique; assay type: functional
[41] = test system: Escherichia coli; assay: Antibacterial activity against Escherichia coli DH52 by two-fold serial dilution technique; assay type: functional
[42] = test system: Trichomonas vaginalis; assay: Anti-trichomonas activity against Trichomonas vaginalis JT assessed as release of nitric oxide at 0.027 uM preincubated for 3 hrs followed by DAF-FM DA probe addition and measured after 30 mins by confocal microscopy; assay type: functional; conditions: time 3.5 hrs
[43] = test system: Trichomonas vaginalis; assay: Anti-trichomonas activity against Trichomonas vaginalis CDC 085 assessed as release of nitric oxide at 0.27 uM preincubated for 3 hrs followed by DAF-FM DA probe addition and measured after 30 mins by confocal microscopy; assay type: functional; conditions: time 3.5 hrs
[44] = test system: Enterococcus faecalis; assay: Potency index, ratio norfloxacin MIC to test compound MIC for antibacterial activity against Enterococcus faecalis; assay type: functional
[45] = test system: Escherichia coli; assay: Antibacterial activity against Escherichia coli by microbroth dilution method; assay type: functional
[46] = test system: Acinetobacter baumannii; assay: Potency index, ratio norfloxacin MIC to test compound MIC for antibacterial activity against Acinetobacter baumannii; assay type: functional
[47] = test system: Escherichia coli; assay: Potency index, ratio norfloxacin MIC to test compound MIC for antibacterial activity against Escherichia coli; assay type: functional
[48] = test system: Enterococcus faecalis; assay: Antibacterial activity against Enterococcus faecalis by microbroth dilution method; assay type: functional
[49] = test system: Acinetobacter baumannii; assay: Antibacterial activity against Acinetobacter baumannii by microbroth dilution method; assay type: functional
[50] = test system: Pseudomonas aeruginosa; assay: Potency index, ratio norfloxacin MIC to test compound MIC for antibacterial activity against Pseudomonas aeruginosa ATCC 27853; assay type: functional
[51] = test system: Pseudomonas aeruginosa; assay: Antibacterial activity against Pseudomonas aeruginosa ATCC 27853 by microbroth dilution method; assay type: functional
[52] = test system: Candida parapsilosis; assay: Antimicrobial activity against Candida parapsilosis ATCC 22019; assay type: functional; conditions: Lodderomyces parapsilosis
[53] = test system: Candida albicans; assay: Antimicrobial activity against Candida albicans ATCC 90023; assay type: functional
[54] = test system: Tritrichomonas foetus; assay: Anti-trichomonas activity against Trichomonas foetus D1 incubated for 24 hrs by hemocytometer counting method; assay type: functional, organism-based; conditions: D1, 24 h
[55] = test system: Trichomonas vaginalis; assay: Anti-trichomonas activity against Trichomonas vaginalis G3 incubated for 24 hrs by hemocytometer counting method; assay type: functional, organism-based; conditions: G3, 24 h
[56] = test system: Tritrichomonas foetus; assay: Anti-trichomonas activity against Trichomonas foetus C1 incubated for 24 hrs by hemocytometer counting method; assay type: functional, organism-based; conditions: C1, 24 h

## Cc1ncc([N+](=O)[O-])n1CCn1cc(CN2C(=O)C(=C3OCCO3)c3cc(Br)ccc32)nn1
[1]
  IC50: 0.8 µM
[2]
  IC50: 1.5 µM

## COc1cc2c(Nc3ccc(Br)cc3F)ncnc2cc1OCC1CCN(C(=O)Cn2cncc2[N+](=O)[O-])CC1
[3]
  inhibition at 0.5 µM: 62%
[4]
  inhibition at 0.5 µM: 59.9%

## Cc1ncc([N+](=O)[O-])n1CCO [METRONIDAZOLE]
[5]
  Activity: 1800000 a.u.
[6]
  MIC: 42.9 µM (≈ 7.34 µg/mL)
[7]
  IC50: 0.93 µM
[8]
  Activity: 350000 a.u.
[9]
  IC50: 0.068 µM
[10]
  IC50: 0.49 µM
[11]
  LC50: > 1000 µM
[12]
  MIC: 5480 µM (≈ 938 µg/mL)
[13]
  MIC: 0.0058 µM (≈ 0.000993 µg/mL)
[14]
  selectivity ratio: > 107
[15]
  LC50: > 1000 µM
[16]
  IC50: 5.2 µM
[17]
  MIC: 2050 µM (≈ 351 µg/mL)
[18]
  IC50: 5.7 µM
[19]
  selectivity ratio: > 22

## Cc1ncc([N+](=O)[O-])n1CCOc1cc(O)c2c(=O)c(-c3ccc(O)cc3)coc2c1
[20]
  MIC: 0.39 µg/mL (≈ 0.921 µM)
[21]
  MIC: 0.39 µg/mL (≈ 0.921 µM)
[22]
  MIC: 0.39 µg/mL (≈ 0.921 µM)
[23]
  MIC: 0.39 µg/mL (≈ 0.921 µM)
[24]
  Ratio: >50
[25]
  Ratio: >50
[26]
  MIC: 0.39 µg/mL (≈ 0.921 µM)
[27]
  Ratio: >50
[28]
  Ratio: >50
[29]
  Ratio: >50

## Cc1ncc([N+](=O)[O-])n1CCSc1ccccc1
[30]
  CC50 at 120 h: 24.8 µM
[31]
  EC50: 2.23 µM
[32]
  selectivity ratio: 11

## CCNc1ccc2c3c(cccc13)C(=O)N(CC(O)Cn1c([N+](=O)[O-])cnc1C)C2=O (stereo not drawn)
[33]
  Ratio: 50
[34]
  MIC: 40 µM (≈ 16.9 µg/mL)
[35]
  MIC: 10 µM (≈ 4.23 µg/mL)
[36]
  MIC: 10 µM (≈ 4.23 µg/mL)
[37]
  MIC: 2 µM (≈ 0.847 µg/mL)
[38]
  Ratio: 10
[39]
  MIC: 20 µM (≈ 8.47 µg/mL)
[40]
  Ratio: 95
[41]
  MIC: 40 µM (≈ 16.9 µg/mL)

## Cc1ncc([N+](=O)[O-])n1CCCl
[42]
  Activity: 9000 a.u.
[9]
  IC50: 0.006 µM
[10]
  IC50: 0.24 µM
[43]
  Activity: 9000 a.u.

## Cc1ncc([N+](=O)[O-])n1CC(O)CN1CCN(S(=O)(=O)c2ccc(N)cc2)CC1 (stereo not drawn)
[44]
  Ratio: 11
[45]
  MIC: 19 µM (≈ 8.07 µg/mL)
[46]
  Ratio: 11
[47]
  Ratio: 84
[48]
  MIC: 75 µM (≈ 31.8 µg/mL)
[49]
  MIC: 75 µM (≈ 31.8 µg/mL)
[50]
  Ratio: 11
[51]
  MIC: 38 µM (≈ 16.1 µg/mL)
[52]
  MIC: 75 µM (≈ 31.8 µg/mL)
[53]
  MIC: 75 µM (≈ 31.8 µg/mL)

## Cc1ncc([N+](=O)[O-])n1CCn1cc(CN2C(=O)/C(=N\NC(N)=S)c3ccccc32)nn1
[54]
  IC50: 0.6 µM
[55]
  IC50: 2.6 µM
[56]
  IC50: 0.6 µM
